{"source": "patent US20240108623A1", "about": "“METHODS OF TREATING CANCER WITH POZIOTINIB” (BOARD OF REGENTS, THE UNIVERSITY OF TEXAS SYSTEM, priority 2021, published 2024)", "assay_in_all_cases": "Ba/F3 cell drug screening, Cell Titer Glo", "assay_type_in_all_cases": "cell-based", "key": {"EGFR Ex19del T790M": {"target": "T1, EGFR Ex19del T790M (Homo sapiens, UniProt P00533, DEL746-750/T790M)", "T1 construct": "expressed in transfected cells; host or cells: Ba/F3 (retroviral transduction, pBabe-Puro based vectors)", "settings": "Ba/F3 cells expressing EGFR Ex19del T790M; 72 hours", "summary_of_the_method": "(§1)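 Ba/F3 cells stably expressing mutant EGFR (retroviral, puromycin-selected, FACS-sorted for EGFR) were kept in 1 ng/ml EGF without IL-3. Cells were exposed to seven TKI concentrations or DMSO for 72 hours, viability measured by CellTiter-Glo, normalized to DMSO, and IC50 interpolated from variable-slope fits.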"}, "EGFR L858R L718Q": {"target": "T2, EGFR L858R L718Q (Homo sapiens, UniProt P00533, L718Q/L858R)", "T2 construct": "host or cells: Ba/F3 (retroviral transduction, pBabe-Puro based vectors)", "settings": "Ba/F3 cells expressing EGFR L858R L718Q; 72 hours", "summary_of_the_method": "as §1"}, "EGFR A763insLQEA": {"target": "T3, EGFR A763insLQEA (Homo sapiens, UniProt P00533, INS763LQEA)", "T3 construct": "expressed in transfected cells; host or cells: Ba/F3 (retroviral, pBabe-Puro based vector)", "settings": "Ba/F3 cells expressing EGFR A763insLQEA; 72 hours", "summary_of_the_method": "as §1"}, "EGFR E709A G719S": {"target": "T4, EGFR E709A G719S (Homo sapiens, UniProt P00533, E709A/G719S)", "T4 construct": "expressed in transfected cells; host or cells: Ba/F3 (retroviral transduction, pBabe-Puro based vectors)", "settings": "Ba/F3 cells expressing EGFR E709A G719S; 72 hours", "summary_of_the_method": "as §1"}, "EGFR L858R S784F": {"target": "T5, EGFR L858R S784F (Homo sapiens, UniProt P00533, L858R/S784F)", "T5 construct": "expressed in transfected cells; host or cells: Ba/F3 (retroviral, pBabe-Puro based vector; created by GeneScript from EGFR L858R)", "settings": "Ba/F3 cells expressing EGFR L858R S784F; 72 hours", "summary_of_the_method": "as §1"}}}
{"molecule": "C=CC(=O)N1CCC(Oc2cc3c(Nc4ccc(Cl)c(Cl)c4F)ncnc3cc2OC)CC1", "note": "[Poziotinib]", "values": [{"measurement": "Response of Cells Comprising T790M-like-S EGFR Mutations to Second-Generation TKIs", "setting": "EGFR Ex19del T790M", "result": 3.423}, {"measurement": "Response of Cells Comprising PACC EGFR Mutations to Second-Generation TKIs", "setting": "EGFR L858R L718Q", "result": 0.01623}, {"measurement": "Response of Cells Comprising Classical-Like EGFR Mutations to Second-Generation TKIs", "setting": "EGFR A763insLQEA", "result": 0.01607}, {"measurement": "Response of Cells Comprising PACC EGFR Mutations to Second-Generation TKIs", "setting": "EGFR E709A G719S", "result": 0.01612}, {"measurement": "Response of Cells Comprising Classical-Like EGFR Mutations to Second-Generation TKIs", "setting": "EGFR L858R S784F", "result": 0.1185}]}
